Measurements taken from publication PMC8517038 (Molecular psychiatry, 2021).
Where two headings read alike, the source gives them in different places.

What was measured:
[1] = test system: NMDARs over opioid receptors; conditions: canonical high affinity NMDAR antagonist; no reference given; cited from earlier work
[2] = test system: locomotor activity; assay: Locomotor activity in mice; assay type: in vivo; conditions: for acute locomotor activity: male mice, 5, 10 and 20 mg/kg IP every 30 min
[3] = target: PCP binding site of the NMDAR (Rattus norvegicus, UniProt P35439); assay: Binding and enzyme target profile screen; conditions: 10 μM
[4] = target: mu-opioid receptor (MOR) (Homo sapiens, UniProt P35372); assay: Binding and enzyme target profile screen; conditions: 10 μM
[5] = target: T1, KOR (Homo sapiens, UniProt P41145); assay: Binding and enzyme target profile screen
[6] = target: Sigma-1 (Rattus norvegicus, UniProt Q9R0C9); assay: Competitive radioligand binding, [3H]
[7] = target: T2, MOR (Homo sapiens, UniProt P35372); assay: cAMP accumulation BRET; assay type: cell-based
[8] = target: T1, KOR; assay: cAMP accumulation BRET; assay type: cell-based
[9] = target: T2, MOR; assay: β-arrestin recruitment BRET in transfected HEK-293 cells; assay type: cell-based
[10] = target: T1, KOR; assay: as above; assay type: cell-based
[11] = test system: dopamine tone; assay: [18F]-Fallypride PET; assay type: in vivo, rat; conditions: 10 mg/kg IV infusion for 40 min
[12] = test system: locomotor sensitization; assay: Locomotor; assay type: in vivo; conditions: male mice; for locomotor (psychomotor) sensitization over days: 20 mg/kg IP for 3 days
[13] = test system: conditioned place preference; assay: Conditioned place preference in mice; assay type: in vivo; conditions: male mice, 10 mg/kg IP, 6 days pairing
[14] = test system: drug self-administration; assay: Intravenous self-administration in rats; assay type: in vivo; conditions: for dose response curve of self-administration: 0.125, 0.25, 0.5, 1.0 mg/kg/infusion, FR1; for extinction of drug self-administration: after retraining on FR1; for self-administration during training: male and female rats, 0.5 mg/kg/infusion, FR1 20-s timeout, 16 sessions
[15] = test system: conditioned place preference; conditions: 40 mg/kg IP, cited from earlier work
[16] = test system: morphine CPP and opioid withdrawal; conditions: mice; cited from earlier work
[17] = test system: methamphetamine-induced locomotion; conditions: 10 mg/kg/day, twice weekly for 8 weeks; cited from earlier work
[18] = test system: dopamine tone; conditions: awake monkeys; cited from earlier work

T1 sequence (P41145 whole entry): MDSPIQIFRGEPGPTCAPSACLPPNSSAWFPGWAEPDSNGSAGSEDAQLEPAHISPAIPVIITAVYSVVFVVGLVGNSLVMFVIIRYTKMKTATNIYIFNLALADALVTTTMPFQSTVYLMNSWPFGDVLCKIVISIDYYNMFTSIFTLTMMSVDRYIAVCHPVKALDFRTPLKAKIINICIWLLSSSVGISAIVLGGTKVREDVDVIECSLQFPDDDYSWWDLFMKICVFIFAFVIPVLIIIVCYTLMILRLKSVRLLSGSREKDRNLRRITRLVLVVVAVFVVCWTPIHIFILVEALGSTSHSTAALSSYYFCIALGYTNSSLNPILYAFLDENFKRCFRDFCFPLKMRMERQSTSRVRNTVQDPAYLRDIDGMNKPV
T2 sequence (P35372 whole entry): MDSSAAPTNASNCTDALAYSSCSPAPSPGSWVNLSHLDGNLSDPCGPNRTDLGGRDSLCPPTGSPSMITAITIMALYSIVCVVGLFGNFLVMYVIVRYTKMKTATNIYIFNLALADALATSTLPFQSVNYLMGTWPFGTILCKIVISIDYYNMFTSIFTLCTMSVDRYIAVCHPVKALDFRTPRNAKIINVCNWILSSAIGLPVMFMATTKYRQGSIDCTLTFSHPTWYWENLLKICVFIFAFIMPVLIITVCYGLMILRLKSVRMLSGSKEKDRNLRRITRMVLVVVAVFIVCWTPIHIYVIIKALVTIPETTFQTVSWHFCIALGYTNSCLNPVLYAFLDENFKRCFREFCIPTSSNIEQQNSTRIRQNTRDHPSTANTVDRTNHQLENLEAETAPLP
Sequence of Sigma-1 (Q9R0C9 whole entry): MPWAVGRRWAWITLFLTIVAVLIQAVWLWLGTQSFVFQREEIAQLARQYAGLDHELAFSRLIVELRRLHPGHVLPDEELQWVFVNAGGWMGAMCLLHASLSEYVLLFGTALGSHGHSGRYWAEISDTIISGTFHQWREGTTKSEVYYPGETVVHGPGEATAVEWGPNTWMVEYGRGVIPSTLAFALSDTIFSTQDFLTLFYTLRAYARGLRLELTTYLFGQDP
Sequence of mu-opioid receptor (MOR) (P35372 whole entry): as the sequence (P35372 whole entry) above

Row | SMILES | hit (>50% inhibition) at PCP binding site of the NMDAR [3] | hit (>50% inhibition) at MOR [4] | mode of action at MOR, cAMP assay [7] | mode of action at KOR, cAMP assay [8] | activation of the β-arrestin pathway, MOR [9] | activation of the β-arrestin pathway, KOR [10] | global extracellular dopamine levels in the dorsal striatum ([18F]fallypride) [11] | acute locomotor activity [2] | locomotor activity after 20 mg/kg IP injection [12] | locomotor (psychomotor) sensitization over days [12] | conditioned place preference for drug-paired chamber [13] | dose response curve of self-administration [14] | extinction of drug self-administration [14] | self-administration during training [14] | further results
1 | C[C@]12N[C@H](Cc3ccccc31)c1ccccc12 [MK-801] | – | – | – | – | – | – | – | – | – | – | – | – | – | – | selectivity for NMDAR over opioid receptors [1]: ~ 1000 fold
2 | O=C1CC[C@@]2(O)[C@H]3Cc4ccc(O)c5c4[C@@]2(CCN3CC2CC2)[C@H]1O5 [naltrexone] | – | – | – | – | – | – | – | – | – | – | – | – | – | – | effect on (S)-ketamine-induced locomotor activity ([2]; naltrexone 10 mg/kg IP pretreatment, male mice): partially blocked
3 | CN[C@@]1(c2ccccc2Cl)CCCCC1=O [(R)-ketamine] | positive hit | not for (R)-ketamine | weaker partial agonist | weaker partial agonist | Neither (S)- nor (R)-ketamine activated | Neither (S)- nor (R)-ketamine activated | Neither (S)- nor (R)-ketamine significantly changed | increasing it only at the 20 mg/kg dose | increased locomotor activity | but not (R)-ketamine induced psychomotor sensitization | not for the (R)-ketamine-paired chamber | did not show this pattern of responding | rapid extinction of drug seeking | weaker and less reliable | inhibition of KOR binding ([5]; 10 μM): ~ 13%; Ki ([6]; read-out: Ki sigma-1, rat whole brain, [3H](+)pentazocine): 27 ± 3 µM; Emax MOR, cAMP assay ([7]; % morphine maximum response): 39 ± 3%; EC50 ([7]; read-out: EC50 MOR, cAMP assay, HEK-293 transfected with MOR): 34 ± 14 µM; Emax KOR, cAMP assay ([8]; % morphine maximum response): < 50%; EC50 ([8]; read-out: EC50 KOR, cAMP assay, HEK-293 transfected with KOR): > 100 µM; cross-sensitization to (S)-ketamine ([12]; repeated 20 mg/kg IP): did not cross-sensitize to (S)-ketamine; CPP in mice ([15]; ref 68): did not produce CPP; CPP in mice ([15]; ref 71): produced CPP in mice; morphine CPP and naloxone-precipitated opioid withdrawal [16]: decreases morphine CPP and naloxone-precipitated opioid withdrawal
4 | CN[C@]1(c2ccccc2Cl)CCCCC1=O [(S)-ketamine] | positive hit | identified as a hit for (S)-ketamine | partial agonist | full agonist | Neither (S)- nor (R)-ketamine activated | Neither (S)- nor (R)-ketamine activated | Neither (S)- nor (R)-ketamine significantly changed | more potent than (R)-ketamine in increasing locomotor activity | increased locomotor activity | showed locomotor sensitization over days | significant preference for the (S)-ketamine-paired chamber | characteristic inverted U-shaped dose response curve | rapid extinction of drug seeking | self-administered (S)-ketamine with a significant escalation of drug intake | inhibition at 10 µM ([5]; read-out: inhibition of KOR binding): ~35%; Ki [6]: 131 ± 15 µM; EC50 [7]: 9 ± 2 µM; Emax ([7]; HEK293, read-out: Emax MOR, cAMP assay): 48 ± 3%; EC50 [8]: 16 ± 4 µM; Emax ([8]; HEK293, read-out: Emax KOR, cAMP assay): 84 ± 5%; average self-administered intake ([14]; dose response test): ~ 15 mg/kg/h; methamphetamine-induced locomotion in mice [17]: led to increased methamphetamine-induced locomotion; [11C]raclopride binding (dopamine tone) [18]: decreases in [^11C]raclopride binding
